Measurements from publication PMC8909834, “An Orally Bioavailable and Highly Efficacious Inhibitor of CDK9/FLT3 for the Treatment of Acute Myeloid Leukemia” (Cancers, 2022).

Experiments:
[1] = system: other members of the CDK family; assay: ADP Glo kinase assay, CDK selectivity; type: biochemical, human; settings: ratio of potency
Method: Kinase assay. The ADP Glo^TM kinase assay (Promega, Madison, WI, USA) was used to assess the inhibition by CDDD11-8 of CDKs 1, 2, 4, 6, 7, and 9, as well as the mutant isoforms of FLT3. The assays were performed in accord with the manufacturer’s protocol (Promega) as described previously. Briefly, serial three-fold dilutions of CDDD11-8 were prepared in 100% DMSO from a 2 mM stock solution, followed by 1:40 dilution into Milli-Q water. […] Luminescence was read using an EnVision® multilabel plate reader (PerkinElmer, Beaconsfield, UK), and half-maximum inhibitory concentrations (IC50) were calculated using a non-linear regression model with a variable slope, plotting log (inhibitor concentration) vs. response using the following formula: Ar%=Bottom+Top−Bottom/1+Inhibitor Concentration/IC50^HillSlope where the relative activity Ar (%) is the signal relative to the controls, IC50 is the half maximum concentration, Hillslope is the steepness of the dose-response curve, Top and Bottom are plateaus reflecting the maximum and minimum in responses on the Y-axis (GraphPad Prism version 7, San Diego, CA, USA). Ki values were calculated from the IC50 using the Cheng−Prusoff equation [32]. […]

[2] = Aqueous solubility by turbidimetric method; type: physicochemical; settings: aqueous medium (not further specified), kinetic from dmso stock
[3] = target: FLT3-ITD (Homo sapiens, UniProt P36888, ITD); assay: ADP Glo kinase assay; type: biochemical; settings: calculated from IC50 using the Cheng-Prusoff equation
Method: (§1) Kinase assay. The ADP Glo^TM kinase assay (Promega, Madison, WI, USA) was used to assess the inhibition by CDDD11-8 of CDKs 1, 2, 4, 6, 7, and 9, as well as the mutant isoforms of FLT3. The assays were performed in accord with the manufacturer’s protocol (Promega) as described previously. Briefly, serial three-fold dilutions of CDDD11-8 were prepared in 100% DMSO from a 2 mM stock solution, followed by 1:40 dilution into Milli-Q water. Subsequently, 1 µL of each sample was incubated with 4 µL of kinase mixture containing a particular CDK enzyme and its substrate, standard kinase buffer [3 mM MgCl2, 50 mM HEPES-NaOH pH 7.5, 3 mM MnCl2, 3 µM Na-orthovanadate, 1 mM dithiothreitol (DTT)], kinase dilution buffer (containing 0.25 mg/mL PEG20,000, 50 mM HEPES-NaOH pH 7.5, 1 mM DTT), and ATP at 37 °C for 30 to 40 min. The final reaction mixture contained 0.5% DMSO in all samples, and the applied kinase concentrations were 1, 1, 10, 40, 20, and 50 nM for CDK1, 2, 4, 6, 7, and 9, respectively. The reaction was stopped by adding ADP-Glo reagent and the mixture was incubated further in the dark at room temperature for 40 min. As a final step, kinase detection reagent was added to each mixture and incubated at room temperature for 30 to 60 min. Luminescence was read using an EnVision® multilabel plate reader (PerkinElmer, Beaconsfield, UK), and half-maximum inhibitory concentrations (IC50) were calculated using a non-linear regression model with a variable slope, plotting log (inhibitor concentration) vs. response using the following formula: Ar%=Bottom+Top−Bottom/1+Inhibitor Concentration/IC50^HillSlope where the relative activity Ar (%) is the signal relative to the controls, IC50 is the half maximum concentration, Hillslope is the steepness of the dose-response curve, Top and Bottom are plateaus reflecting the maximum and minimum in responses on the Y-axis (GraphPad Prism version 7, San Diego, CA, USA). Ki values were calculated from the IC50 using the Cheng−Prusoff equation [32]. Extensive specificity assessment was carried out by Reaction Biology Corporation (Malvern, PA, USA) with 369 kinases using 1 µM CDDD11-8 concentration in a Kinase Hotspot radiolabel assay (for experimental details, please see (Reaction Biology https://www.reactionbiology.com/). Subsequently, Ki values were determined for kinases with greater than 90% inhibition.

[4] = target: CDK6D3 (Homo sapiens, UniProt Q00534); assay: ADP Glo kinase assay; type: biochemical; settings: calculated from IC50 using the Cheng-Prusoff equation
CDK6D3, sequence (Q00534 whole entry): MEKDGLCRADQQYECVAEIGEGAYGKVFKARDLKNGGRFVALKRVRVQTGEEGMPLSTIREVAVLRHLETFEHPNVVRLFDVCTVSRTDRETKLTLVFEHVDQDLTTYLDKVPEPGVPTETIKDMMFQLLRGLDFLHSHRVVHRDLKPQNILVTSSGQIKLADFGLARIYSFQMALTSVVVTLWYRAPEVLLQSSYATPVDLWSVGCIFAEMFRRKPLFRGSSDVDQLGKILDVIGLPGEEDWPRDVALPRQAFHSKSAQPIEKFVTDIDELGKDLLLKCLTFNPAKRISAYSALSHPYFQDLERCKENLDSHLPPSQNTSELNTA
CDK6D3, sequence (P30281 whole entry partner): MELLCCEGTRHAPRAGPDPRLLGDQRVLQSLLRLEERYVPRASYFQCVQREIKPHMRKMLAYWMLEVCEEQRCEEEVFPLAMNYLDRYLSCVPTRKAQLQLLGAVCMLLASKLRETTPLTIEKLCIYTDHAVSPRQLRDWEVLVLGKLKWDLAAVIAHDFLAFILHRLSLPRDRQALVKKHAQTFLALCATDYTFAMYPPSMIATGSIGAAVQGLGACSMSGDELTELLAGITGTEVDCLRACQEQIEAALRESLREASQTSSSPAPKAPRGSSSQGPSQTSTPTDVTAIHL
Method: as §1

[5] = target: FLT3-D835Y (Homo sapiens, UniProt P36888, D835Y); assay: ADP Glo kinase assay; type: biochemical; settings: calculated from IC50 using the Cheng-Prusoff equation
Method: as §1

[6] = target: CDK4D1 (Homo sapiens, UniProt P11802); assay: ADP Glo kinase assay; type: biochemical; settings: calculated from IC50 using the Cheng-Prusoff equation
CDK4D1, sequence (P11802 whole entry): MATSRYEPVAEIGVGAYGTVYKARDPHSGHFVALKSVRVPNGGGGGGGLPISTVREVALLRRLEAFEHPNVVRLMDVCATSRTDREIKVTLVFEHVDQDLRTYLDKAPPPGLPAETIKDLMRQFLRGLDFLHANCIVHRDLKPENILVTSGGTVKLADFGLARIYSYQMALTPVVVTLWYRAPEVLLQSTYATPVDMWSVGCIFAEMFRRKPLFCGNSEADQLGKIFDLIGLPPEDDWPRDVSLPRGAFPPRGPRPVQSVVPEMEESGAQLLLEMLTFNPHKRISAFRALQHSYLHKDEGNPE
CDK4D1, sequence (P24385 whole entry partner): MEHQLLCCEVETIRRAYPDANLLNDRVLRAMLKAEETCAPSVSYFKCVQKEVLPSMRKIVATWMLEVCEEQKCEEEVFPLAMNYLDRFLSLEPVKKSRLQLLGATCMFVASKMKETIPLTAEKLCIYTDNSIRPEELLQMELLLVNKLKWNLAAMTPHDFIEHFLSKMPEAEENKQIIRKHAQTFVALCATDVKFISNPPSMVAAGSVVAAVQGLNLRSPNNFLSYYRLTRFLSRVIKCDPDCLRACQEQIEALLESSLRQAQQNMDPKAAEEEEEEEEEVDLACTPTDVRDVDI
Method: as §1

[7] = target: T1, FLT3 (Homo sapiens, UniProt P36888); assay: ADP Glo kinase assay; type: biochemical; settings: calculated from IC50 using the Cheng-Prusoff equation
T1 construct: purchased Reaction Biology Corporation (Kinase HotSpot)
Method: as §1

[8] = Partition coefficient by shake flask assay; type: physicochemical; settings: octanol/aqueous phase, pH 7.4, read-out: Partition Coefficient LogD7.4 (octanol)
[9] = Dissociation constant by PH metric assay; type: physicochemical

Cc1cnc(N[C@H]2CC[C@H](N)CC2)nc1-c1cnc2ccc(-c3ccccc3)cn12 [CDDD11-8]
selectivity for CDK9 over other members of the CDK family [1]: > 50 fold
solubility [2]: > 100 µM
Ki [3]: 13 nM
Ki [4]: > 1000 nM
Ki [5]: 7 nM
Ki [6]: > 1000 nM
Ki [7]: 46 nM
logD [8]: 1.87
pKa ([9]; first of three values): 2.75
pKa ([9]; second of three values): 4.95
pKa ([9]; third of three values): 9.89
